Entries after “also recorded” stand apart in the source; their conditions may differ. No end group written: not given here.
What was measured:
[1] = system: guinea pig hearts, isolated and perfused in vitro; test: Coronary flow in isolated guinea pig hearts perfused in a Langendorff apparatus
Protocol: (§1) 1-a The coronary system was deemed a suitable model for studying the influence of RLX on dilation of blood vessels. Rat and guinea pig hearts, isolated and perfused in vitro in a Langendorff apparatus, were used to evaluate whether RLX causes changes in the coronary flow. After 30 minutes stabilization, in some experiments RLX (30 ng/ml) was added to the perfusion fluid and perfusion lasted for 20 minutes. In other experiments,RLX (30 ng/ml) was injected as a bolus into the aortic cannula. The perfusates were collected and the coronary flow determined. […] The percentage of basal flow variation is depicted versus time. In these diagrams (as well as in the next ones) values are expressed as mean ± SE (standard error). Statistic analyses were done calculating the Student's test (P), whose value is shown in the diagrams.
To clarify the mechanisms of action of RLX on dilation of coronary vessels, nitric oxide (NO) production and histamine release were assayed in the perfused guinea pig hearts. NO, which is known to be a powerful vasodilatory agent, was measured by determination of nitrites (stable end-products of NO metabolism) in the perfusates. […]

BASM cells = test: Bovine aorta smooth muscle (BASM) cells cultured in vitro: actin cytoskeleton and intracellular cGMP; type: cell-based; conditions: for increase in intracellular cGMP levels: BASM cells
From the text: 1-b Smooth muscle cells of the vascular wall obtained from bovine aorta (BASM) and cultured in vitro are a suitable in vitro model for understanding the mode of action of RLX on blood vessels.
[…] RLX caused a striking concentration-related increase in intracellular cGMP levels (400% and 900% over the values of the untreated cultures).

[2] = system: isolated serosal rat and guinea pig MCs and rat mesenteric MCs; test: Mast cell histamine release, degranulation and intracellular Ca2+; type: cell-based; conditions: for calcium-ionophore-induced and anaphylactic histamine release: mast cells stimulated by ionophore or sensitized by allergen
From the text: 1-c Mast cells (MCs) are known to produce and release vasoactive substances. It has therefore been investigated whether RLX also exerts its vasodilatory action by influencing MC function. […] This effect is mediated by a stimulation of NO production. In fact, the RLX-induced depression of histamine release evoked by calcium ionophore was prevented by MeArg and potentiated by SOD. Moreover, RLX blunted the rise in the intracellular Ca^2+ levels evoked by calcium ionophore in a concentration-related fashion (41% decrease with 10 ng/mL RLX and 97% decrease with 100 ng/mL RLX). From these findings, it emerges that the vasodilatory action of RLX is not due to histamine release by MCs but, rather, to production of the vasodilatory agent NO, in keeping with its effect in the coronary system. The above results are summarized in the diagrams A and B in FIG. 4.
The degree of inhibition was the function of the dose of relaxin being used.

[3] = system: mesenteric artery of spontaneously hypertensive rats; conditions: two days infusion; cited from earlier work
[4] = system: rat hearts, isolated and perfused in vitro; test: Coronary flow in isolated rat hearts perfused in a Langendorff apparatus; conditions: RLX 30 ng/ml in perfusion fluid for 20 minutes or as bolus into the aortic cannula; rat heart (FIG. 1A)
Protocol: as §1

[5] = system: perfused guinea pig hearts; test: Nitric oxide (nitrite) production and histamine release in perfused guinea pig hearts
Protocol: To clarify the mechanisms of action of RLX on dilation of coronary vessels, nitric oxide (NO) production and histamine release were assayed in the perfused guinea pig hearts. NO, which is known to be a powerful vasodilatory agent, was measured by determination of nitrites (stable end-products of NO metabolism) in the perfusates. In some experiments, N^W -monomethyl L-arginine (MeArg), a NO-synthase inhibitor, was added to the perfusion fluid before giving RLX as a bolus; in other experiments,guinea pigs were pretreated with E.coli lipopolysaccharide (LPS), an inducer of NO-synthase activity before heart isolation and perfusion. […] This was further confirmed by the experiments with MeArg and LPS, drugs that blunted and enhanced the RLX-induced increase in the coronary flow, respectively (FIG. 2).

deep artery of the penis = test: Blood flow in the deep artery of the penis by echo-doppler after injection into the cavernous bodies; type: in vivo, human
Protocol: 1-d The blood flow in the penis is influenced by local NO production. Based on the ability of RLX to stimulate NO synthesis, the effect of the peptide on the blood flow in the deep artery of the penis was investigated. RLX (sterilized by microfiltration) was injected into the cavernous bodies of 4 human normal volunteers at a dose of 10 ng, and the blood flow measured by an echo-doppler Acuson 128, 1-6 minutes after the injection. […] In FIG. 5 the echo-doppler images are reported, showing the flow under normal conditions (diagram A), 1 min. after RLX injection (diagram B) and 5 min. after RLX injection (diagram C).

[6] = system: isolated platelets from human volunteers and rabbits; test: Aggregation of isolated platelets incubated with RLX and stimulated with proaggregants; type: cell-based, human and rabbit
Protocol: A first series of experiments was carried out on isolated platelets from human volunteers and rabbits, incubated with RLX and then stimulated with proaggregants.
This effect was concentration-relatedand attained a maximum of 80% inhibition with 100 ng/mL RLX.

male rats = test: Plasma hemostasis factors, circulating platelets and megacaryocytes in male rats injected intraperitoneally with RLX; type: in vivo, rat
Protocol: A second series of experiments was performed in male rats injected intraperitoneally with RLX and sacrificed 20 minutes later. Before sacrifice, blood and plasma samples were collected for studying plasma hemostasis factors and number of circulating platelets; upon sacrifice, spleen specimens were taken for studying the morphology of megacaryocytes.

[7] = Cholesterol and triglycerides in peripheral blood serum; type: in vivo; conditions: peripheral blood serum after RLX administration
atrial myocardiocytes = test: ANP secretion from atrial myocardiocytes of rats after intraperitoneal RLX; type: in vivo, rat
Protocol: 3-a ANP secretion was studied in rats following intraperitoneal administration of 10 μg RLX. It is known that atrial myocardiocytes have an endocrine function, being able to synthesize and release a peptide, called atrial natriuretic peptide (ANP) that, besides its firstly recognized effect in stimulating natriuresis, has other properties such as a negative action on blood pressure due to a decrease in the vascular tone and a shift of the plasma fluid in the interstitial compartment. A possible relationship has therefore been searched for between RLX and ANP by evaluating the amount of immunoreactive ANP and the ultrastructural features of atrial myocardiocytes of rats upon RLX treatment. […] No appreciable changes were found in the extension of the ergastoplasm and Golgi apparatus. […] Determinations of ANP content in rat atria homogenates by RIA before and after in vivo administration of RLX are in agreement with the EM findings.

[8] = Blood osmolality and sodium concentration in rats after RLX; type: in vivo, rat; conditions: rats after RLX (from 142±4 before)
heart atria = conditions: Osheroff et al.; cited from earlier work

## CNC(=N)NCCC[C@H](N)C(=O)O [MeArg, N^W -monomethyl L-arginine, reference compound]
[1]; MeArg added to perfusion fluid before RLX bolus, LPS pretreatment of guinea pigs before heart isolation
  effect on the RLX-induced increase in the coronary flow: blunted
BASM cells; pretreatment of BASM cells
  effect on the RLX-induced increase in cGMP: depression
[2]; mast cells
  effect on the RLX-induced depression of histamine release evoked by calcium ionophore: prevented

## rat RLX: rat relaxin infused for two days in a cited 1989 study (Relaxin B chain RVSEEWMDQVIQVCGRGYARAWIEVCGASVGRLAL; Relaxin A chain QSGALLSEQCCHIGCTRRSIAKLC; ends and bridges not checked; cysteine pairing not given here; UniProt P01347 23-57; P01347 163-186, looked up)
[3]
  vasoconstrictive effects of norepinephrine and vasopressin: blunted

## relaxin [RLX]
[4]
  coronary flow: increases significantly
[1]; RLX 30 ng/ml in perfusion fluid for 20 minutes or as bolus into the aortic cannula, guinea pig heart (FIG. 1B)
  coronary flow: increases significantly
[5]
  amount of histamine in the perfusates: significantly reduced
[5]; versus basal value
  nitrite amounts in the perfusates (NO production): two-fold increase over the basal value
BASM cells; 10 ng/mL RLX for 1 hour
  increase in intracellular cGMP levels: 400 % over the values of the untreated cultures
BASM cells; 100 ng/mL RLX for 1 hour
  increase in intracellular cGMP levels: 900 % over the values of the untreated cultures
BASM cells; BASM cells incubated for 4 hours with 100 ng/mL RLX
  actin cytoskeleton (immunocytochemistry with anti-actin antibodies): induces changes in the actin cytoskeleton
[2]; 10 ng/mL RLX, mast cells
  decrease of the rise in intracellular Ca2+ levels evoked by calcium ionophore: 41%
[2]; 100 ng/mL RLX, mast cells
  decrease of the rise in intracellular Ca2+ levels evoked by calcium ionophore: 97%
[2]; mast cells
  MC degranulation: inhibits
[2]
  calcium-ionophore-induced and anaphylactic histamine release: inhibits
[2]; listed as relaxin
  calcium-ionophore-induced and anaphylactic histamine release: inhibit or, depending on the dose, totally suppress; also recorded: greatly inhibiting
[2]; unstimulated mastocytes
  basal liberation of histamine by mastocytes: no effect whatsoever
Deep artery of the penis; 10 ng into the cavernous bodies, 4 human normal volunteers, 1-6 minutes after injection, versus basal flow
  blood flow in the deep artery of the penis: striking increase
Deep artery of the penis; two subjects, 5-10 min. after RLX injection
  erection: erection was also observed
[6]; 100 ng/mL RLX
  maximum inhibition of platelet aggregation induced by proaggregants: 80%
[6]; FIG. 7
  thromboxane production in platelets: inhibition of thromboxane production
[6]; FIG. 8
  endogenous NO synthesis in platelets: stimulation of endogenous NO synthesis
[6]; FIG. 9
  intracellular cGMP in platelets: rise in intracellular cGMP
[6]; FIG. 10
  cytosolic Ca2+ in platelets: decrease of cytosolic Ca^2+
[6]; ultrastructural examination
  platelet ultrastructure during aggregation: hinders the conformational modifications and granule exocytosis
Male rats; rat plasma, RLX-Treated
  F 1 + 2: 0.028 ± 0.01 nM/mL
  PT: 15.1 ± 0.5 s
  aPTT: 19 ± 2.5 s
  tPA Ag: 0.52 ± 0.1 ng/mL
Male rats; rat plasma, RLX-Treated, 20 minutes after intraperitoneal injection
  Fibrinogen: 185 ± 26 mg/dL
Male rats; rat plasma, RLX-Treated, P < 0.001
  tPA activity: 0.37 ± 0.03 U/mL
Male rats; rat plasma, RLX-Treated, P < 0.05
  PAI-1 activity: 11.7 ± 0.7 U/mL
Male rats; rats
  coagulation factors such as fibrinogen and prothrombin fragments F1+2: slight decrease
  plasma levels of tPA and PAI-1: significant, concentration-dependant increase
Male rats; rats, in vivo
  number of circulating platelets: reduction in the number of circulating platelets
[7]
  reduction of cholesterol concentration: up to 38%
  reduction of triglycerides concentration: ≤ 55%
Atrial myocardiocytes; rats, 10 μg RLX intraperitoneal, twenty minutes after administration
  amount of immunoreactive ANP and number of ANP-storing granules in atrial myocardiocytes: strongly decreased
Atrial myocardiocytes; summary statement
  secretion of ANP from the atriocytes: inhibit or, depending on the dose, totally suppress
[8]
  sodium concentration: 136±2 mEq/1
Heart atria
  binding to heart atria: binding of RLX to heart atria
  rhythm and contractions of the in vitro isolated atria: increase of the rhythm and contractions

Reference: patent US5952296A, “Method of using relaxin as therapeutic or preventing agent” (priority 1993, dated 1999)
